# Data as given in article PMC7496931, “Activation of Sirtuin 2 Inhibitors Employing Photoswitchable Geometry and Aqueous Solubility” (Chemmedchem, 2020).
# Experiments:
# [1] = UV/Vis spectra and half-life of thermal Z→E isomerization; assay type: physicochemical; parameters: k of thermal Z→E isomerization (non-linear regression): unit not given here; conditions: for λΔ/max absorption maximum at thermal equilibrium: 50 μM in DMSO/assay buffer; for k of thermal Z→E isomerization (non-linear regression): 50 μM
# Procedure: (§1) Photochemistry: All photoisomerization experiments were conducted under ruby light of 630 nm and total exclusion of daylight. Illumination was executed using a Bio‐Link 254 Crosslinker from Vilber‐Lourmat equipped with six Vilber‐Lourmat T8‐L lamps (8 W, 365 nm). Visible light radiation of 630 nm (ruby) and 452 nm (blue) was derived from a Paulmann FlexLED 3D strip. All compounds were irradiated in solution using spectrophotometric grade solvents. Photoisomerization and UV/Vis‐spectra measurement was conducted in quartz glass cuvettes (114‐QS, Hellma Analytics) at room temperature.
# UV/Vis Spectra and Half-Life of Thermal Isomerization
# The half-life of the thermal Z→E isomerization after 5 minutes of 365 nm irradiation was determined by UV/Vis-spectroscopy. Therefore, solutions of the respective compounds (50 µM) in 5%, 50% or 90% DMSO in enzyme assay buffer (v/v) were prepared. An initial spectrum of the thermal equilibrium was recorded. After 5 minutes of irradiation with 365 nm the increase of absorbance at the thermal equilibrium maximum (λ∆max) was recorded as exemplified by compound 15c (Figure S3). Absorbance at λ = λ ∆max was plotted as a function of time. Non-linear regression yielded the half-life of the thermal Z→E isomerization (Table S1). For extrapolation of the reaction kinetics, the plateau value was set to the initial absorbance at λ=λ∆max. The following equation was used for non-linear regression:
# y = (y0 − Plateau)e−kx + Plateau
# Figure S3: Left: UV-Vis spectrum of 15c (50 µM) in assay buffer (5% DMSO, v/v) at the thermal equilibrium (∆) and the photostationary state (PSS) after UV irradiation (365 nm). Right:
# Absorbance of 15c (50 µm) in assay buffer (5% DMSO, v/v) at λ∆max = 328 nm after 5 minutes of UV (365 nm) irradiation.
# (1 picture or pasted object on this page, not shown here)
# [2] = Photoisomer distribution (PSD) by HPLC-ELSD; assay type: physicochemical; conditions: HPLC in MeOH/water, ELSD; for E/Z [%] PSD @ 365 nm: after 365 nm irradiation; for E/Z [%] PSD @ 452 nm: after 452 nm irradiation
# Procedure: as §1
# [3] = tested on: urinary bladder cancer cell line RT‐4; assay: Cell-based activity assay (western blot of acetylation levels); parameters: species or system human; conditions: RT-4 cells, 50 μM, 24 h, compounds irradiated (365 nm) prior to incubation
# Procedure: Reductive stability of 15 c, 15 f and 20 a in the presence of the cellular reductant glutathione (5 mM) was confirmed by HPLC analysis (Figure S5, Table S2). For the cell‐based activity assay, we illuminated the compounds solved in DMSO with UV light (365 nm) prior to incubation with the cells. […] As expected, 15 c and 15 f increased the levels of acetylated lysines H3K18 and H3K56, which are both affirmed substrates of Sirt2. In addition, we found H4K8 hyperacetylation even though this site is usually not affected by sirtuin catalysed deacetylation, indicating a further mode of action. […] In Figure 6, we show the relative results, whereby the acetylation product was related to total target protein and to the vehicle control. Again, we found an increase in acetylated histones induced by 15 c and 15 f which proves activity of these two compounds in living cells.
# Figure 6 Relative acetylation levels of protein targets after incubation with compounds at 50 μM for 24 h in urinary bladder cancer cell line RT‐4 (mean of n=2). […]
# Cell-Based Activity Assay
# To qualify inhibitory activity of compounds on sirtuins we used the western blot technique.
# Therefore, we used precast “Mini-Protean TGX Stain-Free Gels” and corresponding “Trans-Blot Turbo Transfer Pack Mini” PVDF membranes (Biorad, Germany). For sample preparation, […]
# Sirt2 in our cell line stock (Data not shown), obtained from “Deutsche Sammlung von Mikroorganismen und Zellkulturen” (DSMZ), Germany. Cells were grown in RPMI 1640 cell medium supplemented with 10% fetal bovine serum and 1% penicillin/streptomycin purchased from PAN Biotec, Germany and stored in a humidified incubator at 37 °C with 5% CO2 atmosphere. For sample preparation, cells were harvested with Trypsin/EDTA and counted in a Beckman’s Coulter Counter. In six well plates, […] were seeded out in 3 mL medium and let allow to attach for 24 h. Stock solutions of compounds (1000-fold) were prepared with DMSO and illuminated with UV light (365 nm) for 5 min. Then, cells were exposed to compounds at a final concentration of 50 µM and incubated for 24 h. Cells were detached with Trypsin/EDTA and washed with phosphate buffered saline (PBS) by centrifugation at 500 g for 5 min and resuspended in PBS. Cell pellets were lysed with a lysis buffer containing Tris […]
# and freshly added 1% protease inhibitor cocktail (Sigma Aldrich, Germany) on ice, followed by sonification for 30 minutes. The protein concentration was determined by the Bradford method against bovine serum albumin (BSA) as standard. Each slot of the precast gel was loaded with 30 µg protein followed by an electrophoretic separation and a transfer onto PVDF membranes.
# Blots were blocked with 10% non-fat milk powder in Tris-buffered saline containing 20 mM Tris, 145 mM NaCl and Tween 0.5% (TBST) for 2 h and incubated with primary antibody in 1:1000 dilutions (in TBST and 1% BSA) over night at 4 °C. After washing procedure, blots were incubated with secondary antibody conjugated with horse radish peroxidase (1:5000 in TBST and 1% BSA) for 2 h. All used antibodies were obtained from cell signalling (UK): anti ac.H3K9 […]
# anti ac.α-tubulin (#5335), anti α-tubulin (#2125) and anti rabbit-HRP (#7074). Target protein bands were detected with Clarity Western ECL Substrate (Biorad, Germany) and recorded at an Advanced Fluorescence Imager (INTAS, Germany). Band intensity was related to internal standard of the TGX Stain-Free gels as loading control.
# In order to verify the conformations of Z-15c and Z-15f obtained from our molecular docking experiments, a two-dimensional dihedral analysis was performed using MOE with 3-(2-phenyldiazenyl)-pyridine as reference compound. Both dihedrals were rotated by 360° in 5° steps. At each step, the potential energy was calculated with AMBER force field parameters and AM1-BCC partial charges applied. The diazenyl double bond of both compounds is nearly […]
λΔ/max absorption maximum at thermal equilibrium ([1]; 5 % DMSO (v/v)) [nm],k of thermal Z→E isomerization (non-linear regression) ([1]; 5 % DMSO (v/v) in assay buffer),E/Z [%] PSD @ 365 nm [2],E/Z [%] PSD @ 452 nm [2],melting point,λΔ/max absorption maximum at thermal equilibrium ([1]; 90 % DMSO (v/v)) [nm],k of thermal Z→E isomerization (non-linear regression) ([1]; 90 % DMSO (v/v) in assay buffer),SMILES,H4K8 acetylation [3],acetylation level of α-tubulin [3],expression of total histone H3 [3],expression of total α-tubulin protein [3],level of acetylated lysine H3K18 [3],level of acetylated lysine H3K56 [3],total H4 [3]
329,0.002173,11/89,86/14,212.1 °C (dec.),,,CC(C)(C)OC(=O)NCc1ccc(/N=N/c2cncc(C(N)=O)c2)cc1 [15 c],hyperacetylation,none of the compounds influenced,no effect,no effect,increased,increased,slight increase
,,5/95,79/21,259.5 °C,333,0.006796,CCCCCCCCCC(=O)NCc1ccc(/N=N/c2cncc(C(N)=O)c2)cc1 [15 f],hyperacetylation,none of the compounds influenced,no effect,no effect,increased,increased,slight increase
